Assay results reported in patent US20180008718A1, “COMPOSITIONS FOR THE SUSTAINED RELEASE OF ANTI-GLAUCOMA AGENTS TO CONTROL INTRAOCULAR PRESSURE” (The Johns Hopkins University, priority 2015, published 2018).

Experiments:
[1] = In vitro drug release kinetics of ECA-L-Cysteine polyanhydride microparticles; format: physicochemical; details: accelerated infinite sink conditions at 37° C.; FIG. 1
Excerpt: FIG. 1 is a graph showing the release of ECA-L-cysteine (% release) as a function of time (days).

[2] = tested on: normal, C57BL/6 mice; experiment: IOP lowering effect in normal mice after administration via the epischleral vein at the limbus; format: in vivo
Excerpt: FIG. 2A is a graph showing intraocular pressure (IOP, mmHg) as function of administration of free ECA and a control over time (days). FIG. 2B is a graph showing intraocular pressure (IOP, mmHg) as function of administration of ECA-L-cysteine particles and a control over time (days).

[3] = tested on: human patients with elevated IOP; details: intracameral administration; cited from earlier work

SMILES | time over which ECA-L-Cysteine conjugate was continually released in vitro [1] | duration of the IOP lowering effect ([2]; 1 μg drug via epischleral vein at the limbus) | IOP lowering compared to the untreated control group ([2]; 1 μg drug via epischleral vein at the limbus, FIGS. 2A and 2B) | IOP lowering effect by Day 5 ([2]; 1 μg free drug, Day 5) | duration of IOP lowering [3]
CCC(CSC[C@H](N)C(=O)O)C(=O)c1ccc(OCC(=O)O)c(Cl)c1Cl (stereo partly drawn) [ECA-L-Cysteine conjugate] | 14 days | – | – | – | –
C=C(CC)C(=O)c1ccc(OCC(=O)O)c(Cl)c1Cl [free ECA, ethacrynic acid] | – | 1 days | significant lowering of IOP | gone | three
